From ChEMBL document CHEMBL1201862, “PubChem BioAssay data set” (2004)
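Exposure lasted 48 hours, with cells grown in 96-well plates and compounds tested at five concentrations. GI50 = concentration required for 50% inhibition of growth.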 Activity calls are given as the source filed them. Cut-off read from the data, not from the text of the source: active = GI50 up to about 1.1 µM and inactive = higher.

Assays:
Experiment in all cases: DTP human tumour cell line panel, 48 h
M19-MEL = system: M19-MEL
RXF 393 = system: RXF 393
MOLT-4 = system: MOLT-4
LXFL 529 = system: LXFL 529
TK-10 = system: TK-10
DMS-114 = system: DMS-114
Malme-3M = system: Malme-3M
M14 = system: M14
OVCAR-3 = system: OVCAR-3
SNB-78 = system: SNB-78
EKVX = system: EKVX
786-0 = system: 786-0
KM12 = system: KM12
LOX IMVI = system: LOX IMVI
HL-60 = system: HL-60
NCI-H460 = system: NCI-H460
SN12C = system: SN12C
RPMI-8226 = system: RPMI-8226
DMS-273 = system: DMS-273
CCRF-CEM = system: CCRF-CEM
SF-295 = system: SF-295
OVCAR-5 = system: OVCAR-5
SF-539 = system: SF-539
HCT-15 = system: HCT-15
SNB-75 = system: SNB-75
SR = system: SR
OVCAR-8 = system: OVCAR-8
OVCAR-4 = system: OVCAR-4
IGROV-1 = system: IGROV-1
KM-20L2 = system: KM-20L2
U-251 = system: U-251
SK-MEL-28 = system: SK-MEL-28
UACC-62 = system: UACC-62
NCI-H522 = system: NCI-H522
SK-MEL-2 = system: SK-MEL-2
XF498 = system: XF498
HCT-116 = system: HCT-116
SK-MEL-5 = system: SK-MEL-5
SF-268 = system: SF-268
HOP-62 = system: HOP-62
HT-29 = system: HT-29
K562 = system: K562
COLO 205 = system: COLO 205
NCI-H23 = system: NCI-H23
NCI-H226 = system: NCI-H226
SNB-19 = system: SNB-19
ACHN = system: ACHN
HCC 2998 = system: HCC 2998
SW-620 = system: SW-620
UO-31 = system: UO-31
A549 = system: A549
UACC-257 = system: UACC-257
DLD-1 = system: DLD-1
HOP-92 = system: HOP-92
A498 = system: A498
CAKI-1 = system: CAKI-1
HOP-18 = system: HOP-18

COC(=O)c1c(C(=O)OC)c2cc(C(=O)c3ccccc3)ccn2c1Cl
GI50 (M19-MEL): 32.5 µM (inactive)
GI50 (RXF 393): 23.7 µM (inactive)
GI50 (MOLT-4): 17.7 µM (inactive)
GI50 (LXFL 529): 30 µM (inactive)
GI50 (TK-10): 67.1 µM (inactive)
GI50 (DMS-114): 23.5 µM (inactive)
GI50 (Malme-3M): 52.7 µM (inactive)
GI50 (M14): 34 µM (inactive)
GI50 (OVCAR-3): 21.6 µM (inactive)
GI50 (SNB-78): 50.9 µM (inactive)
GI50 (EKVX): 31 µM (inactive)
GI50 (786-0): 44.6 µM (inactive)
GI50 (KM12): 24 µM (inactive)
GI50 (LOX IMVI): 36.1 µM (inactive)
GI50 (HL-60): 22.8 µM (inactive)
GI50 (NCI-H460): 50 µM (inactive)
GI50 (SN12C): 49.8 µM (inactive)
GI50 (RPMI-8226): 16.3 µM (inactive)
GI50 (DMS-273): 27.6 µM (inactive)
GI50 (CCRF-CEM): 29.7 µM (inactive)
GI50 (SF-295): 26.4 µM (inactive)
GI50 (OVCAR-5): 48.4 µM (inactive)
GI50 (SF-539): 48.6 µM (inactive)
GI50 (HCT-15): 20.9 µM
GI50 (SNB-75): 12.9 µM (inactive)
GI50 (SR): 15.4 µM (inactive)
GI50 (OVCAR-8): 30 µM (inactive)
GI50 (OVCAR-4): 31.2 µM (inactive)
GI50 (IGROV-1): 53.1 µM (inactive)
GI50 (KM-20L2): 55 µM (inactive)
GI50 (U-251): 44.2 µM (inactive)
GI50 (SK-MEL-28): 35.8 µM (inactive)
GI50 (UACC-62): 24.9 µM (inactive)
GI50 (NCI-H522): 19.5 µM (inactive)
GI50 (SK-MEL-2): 48.4 µM (inactive)
GI50 (XF498): 24.3 µM (inactive)
GI50 (HCT-116): 39.6 µM (inactive)
GI50 (SK-MEL-5): 16.2 µM (inactive)
GI50 (SF-268): 43.2 µM (inactive)
GI50 (HOP-62): 37.2 µM (inactive)
GI50 (HT-29): 47.1 µM (inactive)
GI50 (K562): 29 µM (inactive)
GI50 (COLO 205): 35.8 µM (inactive)
GI50 (NCI-H23): 23.1 µM (inactive)
GI50 (NCI-H226): 22.3 µM (inactive)
GI50 (SNB-19): 34 µM (inactive)
GI50 (ACHN): 43.8 µM (inactive)
GI50 (HCC 2998): > 100 µM (inactive)
GI50 (SW-620): 71 µM (inactive)
GI50 (UO-31): 28.2 µM (inactive)
GI50 (A549): 41.5 µM (inactive)

CCCCCCCCCCCCCCC(C)CCC(=O)O (stereo not drawn)
GI50 (UACC-257): > 100 µM (inactive)
GI50 (M19-MEL): 47.2 µM (inactive)
GI50 (RXF 393): > 100 µM (inactive)
GI50 (TK-10): > 100 µM (inactive)
GI50 (Malme-3M): > 100 µM (inactive)
GI50 (OVCAR-3): 68.7 µM (inactive)
GI50 (SNB-78): > 100 µM (inactive)
GI50 (EKVX): > 100 µM (inactive)
GI50 (786-0): 80.9 µM (inactive)
GI50 (KM12): 49.8 µM (inactive)
GI50 (LOX IMVI): 31.6 µM (inactive)
GI50 (NCI-H460): 31.9 µM (inactive)
GI50 (SN12C): > 100 µM (inactive)
GI50 (SF-295): > 100 µM (inactive)
GI50 (OVCAR-5): > 100 µM (inactive)
GI50 (SF-539): 48.9 µM (inactive)
GI50 (DLD-1): > 100 µM (inactive)
GI50 (SNB-75): > 100 µM (inactive)
GI50 (OVCAR-8): > 100 µM (inactive)
GI50 (OVCAR-4): > 100 µM (inactive)
GI50 (IGROV-1): > 100 µM (inactive)
GI50 (U-251): 52.5 µM (inactive)
GI50 (SK-MEL-28): > 100 µM (inactive)
GI50 (UACC-62): 78.9 µM (inactive)
GI50 (SK-MEL-2): 60 µM (inactive)
GI50 (XF498): 59.4 µM (inactive)
GI50 (HOP-92): 62.5 µM (inactive)
GI50 (HCT-116): 36.8 µM (inactive)
GI50 (A498): > 100 µM (inactive)
GI50 (SK-MEL-5): > 100 µM (inactive)
GI50 (SF-268): > 100 µM (inactive)
GI50 (HOP-62): > 100 µM (inactive)
GI50 (HT-29): 34.5 µM (inactive)
GI50 (CAKI-1): > 100 µM (inactive)
GI50 (HOP-18): > 100 µM (inactive)
GI50 (COLO 205): 44 µM (inactive)
GI50 (NCI-H23): > 100 µM (inactive)
GI50 (NCI-H226): > 100 µM (inactive)
GI50 (SNB-19): > 100 µM (inactive)
GI50 (ACHN): > 100 µM (inactive)
GI50 (SW-620): > 100 µM (inactive)
GI50 (A549): > 100 µM (inactive)
